According to patent US8722052B2, “Vaccinia virus protein A46 peptide and use thereof” (priority 2008, dated 2014):
“And” between values parts separate entries of the source, which are not always exact repeats. Equal values may be shown once. Square brackets hold non-standard residues; d marks the D form. Ends that are not written are not given here.

Test system: TLR4
Experiment: LPS-induced TNFα in primary human PBMC, ELISA
Format: cell-based
Settings: peptide 1, 5 or 25 μM 1 h before 10 ng/ml LPS, 6 h
Protocol: FIGS. 13A and B are bar charts showing the effect of A467 and A464 on LPS-induced TNFα production and on cell viability in primary human cells. Peripheral blood mononuclear cells (PBMCs) were seeded in 96 well plates (1 ×10^6 cells/ml) 24 hours before treatment. A467 (SEQ ID NO. 23) and A464 (SEQ ID NO. 20) were added to the cells at 1, 5 and 25 μM 1 hour before stimulating with 10 ng/ml LPS. The peptides were added into the unstimulated control wells at 25 μM. Supernatants were collected 6 hours after stimulation and assayed for TNFα production by ELISA (A). The cells were assayed for viability by the MTT assay (B). No peptides were added to the control wells (black bars). Data is representative of at least three experiments each performed in triplicate and is expressed as mean±s.d;
FIGS. 14A and B are bar charts showing the comparison of the inhibitory effect of the L- and D-forms of A464 on LPS-induced TNFα in primary human and murine cells. PBMC (1×10^6 cells/ml, (A)) or immortalised murine macrophages (1.5×10^5 cells/ml, (B)) were seeded in 96 well plates 24 hours before treatment. L-form and D-form A464 peptides (with the 9R delivery peptide on the C-terminus, SEQ ID NO. 20) were added to the cells at a concentration of 1, 5 or 25 μM 1 hour before stimulating with 10 ng/ml LPS. Supernatants were collected 6 hours after stimulation and assayed for either human (A) or murine (B) TNFα production by ELISA. No peptides were added to the control wells (black bars). Data is representative of at least three experiments each performed in triplicate and is expressed as mean±s.d;
FIGS. 15A and B are bar charts showing the effect of the D-form A464 peptide with the TAT delivery sequence on LPS induced TNFα in primary human and murine cells. PBMC (A) and immortalised murine macrophages (B) were seeded in 96 well plates 24 hours before treatment. D-form of A467 (SEQ ID NO. 37) and A464 (SEQ ID NO. 36) with the TAT delivery sequence were added to the cells at a concentration of 1, 5 or 25 μM 1 hour before stimulating with 10 ng/ml LPS. The peptides were added into the unstimulated control wells at 25 μM. Supernatants were collected 6 hours after stimulation and assayed for either human (A) or murine (B) TNFα production by ELISA. No peptides were added to the control wells (black bars). Data is representative of at least three experiments each performed in triplicate and is expressed as mean±s.d;
FIGS. 16A and B are bar charts showing the effect of attaching 9R to the N-terminus of A464 on LPS-induced TNFα in primary human and murine cells. Immortalised murine macrophages (A) and PBMC (B) were seeded in 96 well plates 24 hours before treatment. L-form of A467 (SEQ ID NO. 39) and A464 (SEQ ID NO. 38) with the 9R-delivery sequence at the N-terminus were added to the cells at a concentration of 1, 5 or 25 μM 1 hour before stimulating with 10 ng/ml LPS. The peptides were added into the unstimulated control wells at […]. Supernatants were collected 6 hours after stimulation and assayed for either murine (A) or human (B) TNFα production by ELISA. No peptides were added to the control wells (black bars). Data is representative of at least three experiments each performed in triplicate and is expressed as mean±s.d;
FIGS. 17A and B are bar charts showing the effect of the D-form A464 with 9R at the N-terminus on LPS-induced TNFα in primary human and murine cells. Immortalised murine macrophages (A) and PBMC (B) were seeded in 96 well plates 24 hours before treatment. D-form of A467 (SEQ ID NO. 39) and A464 (SEQ ID NO. 38) peptides with the 9R-delivery sequence at N-terminus were added to the cells at a concentration of 1, 5 or 25 μM 1 hour before stimulating with 10 ng/ml LPS. The peptides were added into the unstimulated control wells at 25 μM. Supernatants were collected 6 hours after stimulation and assayed for either murine (A) or human (B) TNFα production by ELISA. No peptides were added to the control wells (black bars). […]

Sequence of TLR4 (O00206 24-839): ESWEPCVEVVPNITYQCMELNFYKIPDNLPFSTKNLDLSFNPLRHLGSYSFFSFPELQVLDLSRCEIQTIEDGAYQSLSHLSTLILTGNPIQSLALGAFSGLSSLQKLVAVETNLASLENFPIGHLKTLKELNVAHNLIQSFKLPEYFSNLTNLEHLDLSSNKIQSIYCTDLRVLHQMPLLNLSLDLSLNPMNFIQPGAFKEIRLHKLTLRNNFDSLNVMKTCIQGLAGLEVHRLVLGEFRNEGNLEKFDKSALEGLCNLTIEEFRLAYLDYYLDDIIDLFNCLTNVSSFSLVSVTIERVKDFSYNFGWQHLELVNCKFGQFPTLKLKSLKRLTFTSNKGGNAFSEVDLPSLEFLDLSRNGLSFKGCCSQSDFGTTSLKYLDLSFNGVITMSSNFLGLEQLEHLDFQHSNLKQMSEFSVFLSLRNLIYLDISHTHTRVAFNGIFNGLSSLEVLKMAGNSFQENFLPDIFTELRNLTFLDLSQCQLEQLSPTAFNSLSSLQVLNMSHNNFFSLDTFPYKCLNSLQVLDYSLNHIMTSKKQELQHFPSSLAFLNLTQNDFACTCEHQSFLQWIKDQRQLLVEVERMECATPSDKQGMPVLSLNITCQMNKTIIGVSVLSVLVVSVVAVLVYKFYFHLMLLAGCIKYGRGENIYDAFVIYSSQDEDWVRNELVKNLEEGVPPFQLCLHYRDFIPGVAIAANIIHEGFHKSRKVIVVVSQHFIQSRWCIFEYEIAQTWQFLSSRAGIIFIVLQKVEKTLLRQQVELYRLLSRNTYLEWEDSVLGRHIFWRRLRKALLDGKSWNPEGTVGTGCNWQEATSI
Sequence of TLR4 (Q9Y6Y9 17-160 partner limits assumed): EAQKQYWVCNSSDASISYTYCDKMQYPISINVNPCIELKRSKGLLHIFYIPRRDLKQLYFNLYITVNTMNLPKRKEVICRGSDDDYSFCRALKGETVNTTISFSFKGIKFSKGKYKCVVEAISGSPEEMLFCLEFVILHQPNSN

## 9RN-A464 (RRRRRRRRRKYSFKLILAEY) [Peptide 9RN-A464]
  inhibition of LPS-induced hTNFα production: inhibition was only observed from 5-25 μM

## D-9RN-A464 ([dR][dR][dR][dR][dR][dR][dR][dR][dR][dK][dY][dS][dF][dK][dL][dI][dL][dA][dE][dY]) [Peptide D-9RN-A464]
  inhibition of LPS-induced hTNFα production: inhibited TNFα only at concentration of 24 μM

## KYSFKLILAEYRRRRRRRRR [Peptide A464]
  inhibition of LPS-induced hTNFα production: significant inhibition of TLR4 by A464 (SEQ ID No. 20) at 1 μM and 5 μM A464 (SEQ ID No. 20) peptide almost completely blocked hTNFα production
